Laboratory results reported in patent US9302999B2, “Substituted triazoles as herbicides” (E. I. DU PONT DE NEMOURS AND COMPANY, priority 2012, dated 2016).

Key:
Assay type in all cases: in vivo
[1] = tested on: velvetleaf (Abutilon theophrasti); assay: Test A pre-/postemergence: velvetleaf
Outline: (§1)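 Seeds were sown in loam/sand blend and sprayed preemergence (directed soil spray) and, simultaneously, postemergence at 2–10 cm, one- to two-leaf stage, using compounds in non-phytotoxic solvent with surfactant. After ~10 days in greenhouse, injury was rated visually versus untreated controls, 0 (no effect) to 100 (complete control).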

[2] = tested on: ducksalad (Heteranthera limosa); assay: Test C flooded paddy test: ducksalad; details: scale 0 to 100 (0 no effect, 100 complete control)
Outline: (§2)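 Plants were grown to the 2-leaf stage, pots flooded to 3 cm above soil, and test compounds applied directly to the paddy water, with that depth held throughout. After 13 to 15 days in a greenhouse, injury was visually rated against controls on a 0 (no effect) to 100 (complete control) scale.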

[3] = tested on: pigweed (Amaranthus retroflexus); assay: Test A pre-/postemergence: pigweed
Outline: as §1

[4] = tested on: foxtail, giant (giant foxtail, Setaria faberii); assay: Test A pre-/postemergence: foxtail, giant
Outline: as §1

[5] = tested on: crabgrass, large (large crabgrass, Digitaria sanguinalis); assay: Test A pre-/postemergence: crabgrass, large
Outline: as §1

[6] = tested on: barnyardgrass (Echinochloa crus-galli); assay: Test C flooded paddy test: barnyardgrass; details: scale 0 to 100 (0 no effect, 100 complete control)
Outline: as §2

corn (Zea mays) = assay: Test A pre-/postemergence: corn
Outline: as §1

[7] = tested on: barnyardgrass (Echinochloa crus-galli); assay: Test A pre-/postemergence: barnyardgrass
Outline: as §1

rice (Oryza sativa) = assay: Test C flooded paddy test: rice; details: scale 0 to 100 (0 no effect, 100 complete control)
Outline: as §2

[8] = tested on: morningglory (Ipomoea spp.); assay: Test A pre-/postemergence: morningglory
Outline: as §1

[9] = tested on: wheat (Triticum aestivum); assay: Test A pre-/postemergence: wheat
Outline: as §1

[10] = tested on: sedge, umbrella (small-flower umbrella sedge, Cyperus difformis); assay: Test C flooded paddy test: sedge, umbrella; details: scale 0 to 100 (0 no effect, 100 complete control)
Outline: as §2

[11] = Postemergence, 125 g ai/ha, 0 to 100 scale, 0 is no effect, 100 is complete control
[12] = Postemergence, 500 g ai/ha, visual rating on 0 to 100 scale (0 no effect, 100 complete control), approximately ten days
[13] = Preemergence, 125 g ai/ha, 0 to 100 scale where 0 is no effect and 100 is complete control
[14] = Preemergence, 500 g ai/ha, 0 to 100 scale (0 no effect, 100 complete control)
[15] = Flood (flooded paddy test), 125 g ai/ha, visual rating after 13 to 15 days
[16] = Flood (flooded paddy test), 250 g ai/ha, visual rating after 13 to 15 days
[17] = Postemergence, 1000 g ai/ha, visual rating on 0 to 100 scale (0 no effect, 100 complete control), approximately ten days
[18] = Preemergence, 1000 g ai/ha, 0 to 100 scale, 0 is no effect, 100 is complete control

Q: Which results are given for `Cc1nn(-c2ccc(C(F)(F)F)cc2)nc1Oc1cccc(OC(F)(F)F)c1` [Compound 119]?
A: Velvetleaf plant response rating [1, 11]: 20; Velvetleaf plant response rating [1, 12]: 40; Plant response rating, Velvetleaf [1, 13]: 0; Plant response rating, Velvetleaf [1, 14]: 10; Plant response rating, Ducksalad [2, 15]: 80; Plant response rating, Ducksalad [2, 16]: 80; Plant response rating, Ducksalad ([2]; Flood, 62 g ai/ha): 50; Pigweed plant response rating [3, 11]: 70; Pigweed plant response rating [3, 12]: 100; Plant response rating, Pigweed [3, 13]: 60; Plant response rating, Pigweed [3, 14]: 100; Foxtail, Giant plant response rating [4, 11]: 20; Foxtail, Giant plant response rating [4, 12]: 60; Plant response rating, Foxtail, Giant [4, 13]: 50; Plant response rating, Foxtail, Giant [4, 14]: 100; Crabgrass, Large plant response rating [5, 11]: 40; Crabgrass, Large plant response rating [5, 12]: 70; Plant response rating, Crabgrass, Large [5, 13]: 70; Plant response rating, Crabgrass, Large [5, 14]: 100; Plant response rating, Barnyardgrass [6, 15]: 25; Plant response rating, Barnyardgrass [6, 16]: 30; Plant response rating, Barnyardgrass ([6]; Flood, 62 g ai/ha): 20; Corn plant response rating (corn (Zea mays); [11]): 10; Corn plant response rating (corn (Zea mays); [12]): 30; Plant response rating, Corn (corn (Zea mays); [13]): 0; Plant response rating, Corn (corn (Zea mays); [14]): 0; Barnyardgrass plant response rating [7, 11]: 10; Barnyardgrass plant response rating [7, 12]: 20; Plant response rating, Barnyardgrass [7, 13]: 0; Plant response rating, Barnyardgrass [7, 14]: 30; Plant response rating, Rice (rice (Oryza sativa); [15]): 25; Plant response rating, Rice (rice (Oryza sativa); [16]): 25; Plant response rating, Rice (rice (Oryza sativa); Flood, 62 g ai/ha): 15; Morningglory plant response rating [8, 11]: 20; Morningglory plant response rating [8, 12]: 70; Plant response rating, Morningglory [8, 13]: 0; Plant response rating, Morningglory [8, 14]: 10; Wheat plant response rating [9, 11]: 0; Wheat plant response rating [9, 12]: 10; Plant response rating, Wheat [9, 13]: 0; Plant response rating, Wheat [9, 14]: 0; Plant response rating, Sedge, Umbrella [10, 15]: 85; Plant response rating, Sedge, Umbrella [10, 16]: 85; Plant response rating, Sedge, Umbrella ([10]; Flood, 62 g ai/ha): 75

Q: Which “Velvetleaf plant response rating” value [1, 17] does the source give for `FC(F)(F)c1ccc(-n2nc(Br)c(Cc3cccc(C(F)(F)F)c3)n2)cc1` [Compound 123] here?
A: The value was 100.

Q: What about the “Velvetleaf plant response rating” value [1, 18] of the same molecule?
A: Its value is 10.

Q: What about the “Plant response rating, Ducksalad” value [2, 15] of the same molecule?
A: The value was 75.

Q: What about the “Plant response rating, Ducksalad” value [2, 16] of the same molecule?
A: The value was 75.

Q: What about the “Plant response rating, Ducksalad” value ([2]; Flood, 31 g ai/ha) of the same molecule?
A: The value was 0.

Q: And the “Plant response rating, Ducksalad” value ([2]; Flood, 62 g ai/ha)?
A: The value was 40.

Q: What about the “Pigweed plant response rating” value [3, 17] of the same molecule?
A: Its value is 100.

Q: What about the “Pigweed plant response rating” value [3, 18] of the same molecule?
A: Its value is 80.

Q: And the “Foxtail, Giant plant response rating” value [4, 17]?
A: The value was 60.

Q: And the “Foxtail, Giant plant response rating” value [4, 18]?
A: The value was 80.

Q: What about the “Crabgrass, Large plant response rating” value [5, 17] of the same molecule?
A: The value was 80.

Q: And the “Crabgrass, Large plant response rating” value [5, 18]?
A: Its value is 60.

Q: What about the “Plant response rating, Barnyardgrass” value [6, 15] of the same molecule?
A: Its value is 0.

Q: And the “Plant response rating, Barnyardgrass” value [6, 16]?
A: The value was 0.

Q: What about the “Plant response rating, Barnyardgrass” value ([6]; Flood, 31 g ai/ha) of the same molecule?
A: Its value is 0.

Q: And the “Plant response rating, Barnyardgrass” value ([6]; Flood, 62 g ai/ha)?
A: The value was 0.

Q: And the “Corn plant response rating” value (corn (Zea mays); [17])?
A: Its value is 40.

Q: What about the “Corn plant response rating” value (corn (Zea mays); [18]) of the same molecule?
A: Its value is 0.

Q: What about the “Barnyardgrass plant response rating” value [7, 17] of the same molecule?
A: The value was 10.

Q: And the “Barnyardgrass plant response rating” value [7, 18]?
A: Its value is 10.

Q: What about the “Plant response rating, Rice” value (rice (Oryza sativa); [15]) of the same molecule?
A: The value was 0.

Q: And the “Plant response rating, Rice” value (rice (Oryza sativa); [16])?
A: Its value is 10.

Q: And the “Plant response rating, Rice” value (rice (Oryza sativa); Flood, 31 g ai/ha)?
A: Its value is 0.

Q: What about the “Plant response rating, Rice” value (rice (Oryza sativa); Flood, 62 g ai/ha) of the same molecule?
A: The value was 0.

Q: And the “Morningglory plant response rating” value [8, 17]?
A: The value was 100.

Q: What about the “Morningglory plant response rating” value [8, 18] of the same molecule?
A: Its value is 0.

Q: What about the “Wheat plant response rating” value [9, 17] of the same molecule?
A: Its value is 20.

Q: What about the “Wheat plant response rating” value [9, 18] of the same molecule?
A: Its value is 0.

Q: What about the “Plant response rating, Sedge, Umbrella” value [10, 15] of the same molecule?
A: Its value is 50.

Q: What about the “Plant response rating, Sedge, Umbrella” value [10, 16] of the same molecule?
A: The value was 75.

Q: What about the “Plant response rating, Sedge, Umbrella” value ([10]; Flood, 31 g ai/ha) of the same molecule?
A: The value was 0.

Q: And the “Plant response rating, Sedge, Umbrella” value ([10]; Flood, 62 g ai/ha)?
A: The value was 0.
